Patent publication US8623429B2, “Stabilized anthocyanin compositions” (Omnica GmbH, priority 2007, dated 2014)

What was measured:
Type in all cases: physicochemical
[1] = Example 9: stability of bilberry extract anthocyanosides, 4 hours at 37° C., pH 7.0, with/without L-cysteine
Method: Sample a) 60 mg bilberry extract [37% anthocyanosides] (0.048 mmol anthocyanosides expressed as cyanidin-3-O-glucoside) were added to a 100 ml flask with 60 ml sodium phosphate buffer (5% [w/w], pH=7.0), and stirred until dissolution was complete. A 1 ml sample was taken immediately and acidified with formic acid to pH=1.0 and analyzed by HPLC for the content of anthocyanosides (Fresh Sample). The remaining solution was kept for 4 hours at 37° C. (water bath) with stirring. Thereafter another sample (Blank sample), representing unprotected degradation, was taken and acidified.
Sample b) 20 mg L-cysteine […] were added to a 100 ml flask with 60 ml sodium phosphate buffer (5% [w/w], pH=7.0) and stirred until dissolution was complete. 60 mg bilberry extract [37% anthocyanosides] (0.048 mmol expressed as cyanidin-3-O-glucoside) were then added to the flask and stir to fully dissolve, then kept for 4 hours at 37° C. (water bath) with stirring.
After 4 hours, samples were taken and acidified immediately with formic acid to pH=1.0 and analyzed by HPLC for the content of anthocyanosides. Degradation is expressed as decrease in peak area of individual peaks (calculated as % left after 4 hours).
Samples were prepared as outlined above in the HPLC Analytical Method. Test stability samples were immediately acidified (to block degradation) and injected undiluted following the detailed description provided below.

[2] = Example 1: stability of bilberry extract anthocyanosides, 4 hours at 37° C., pH 7.0, with/without DHLA or GSH (HPLC)
[3] = Example 5: degradation over time of black currant anthocyanosides at 37° C., pH 7.0, with/without GSH (HPLC); conditions: pH 7.0, 37° C.; for %-residual anthocyanosides (% left): 4 hours
Method: Sample a) 60 mg black currant extract [35% anthocyanosides] (0.037 mmol anthocyanosides expressed as cyanidin-3-O-rutinoside) were added to a 100 ml flask, filled to volume with sodium phosphate buffer (5% [w/w], pH=7.0) and stirred until dissolution was complete. A 1 ml sample was taken immediately, acidified with formic acid to pH=1.0 and analyzed by HPLC for the content of anthocyanosides. The remaining solution was kept at 37° C. (water bath) with stirring and 1 ml samples (Blank Samples), representing unprotected degradation, were taken every 15 minutes. The samples were analyzed for selected anthocyanosides by HPLC.
Sample b) 20 mg reduced L-glutathione (0.065 mmol) were added to a 100 ml flask with 60 ml sodium phosphate buffer (5% [w/w], pH=7.0) and stirred until dissolution was complete. 60 mg black currant extract [35% anthocyanosides] (0.037 mmol anthocyanosides expressed as cyanidin-3-O-rutinoside) were added, the flask was filled to volume with sodium phosphate buffer (5% [w/w], pH=7.0) and kept for at 37° C. (water bath) with stirring. Every 15 minutes 1 ml samples were taken and analyzed for selected anthocyanosides by HPLC.
(§1) Samples were prepared as outlined below in HPLC Analytical Method. Test stability samples were immediately acidified (to block degradation) and injected undiluted following the detailed description provided below.

[4] = Example 3: stability of black currant extract anthocyanosides, 4 hours at 37° C., pH 7.0, with/without DHLA, GSH or L-cysteine (HPLC)
Method: Sample a) 60 mg black currant extract [35% anthocyanosides] (0.037 mmol anthocyanosides expressed as cyanidin-3-O-rutinoside) were added to a 100 ml flask and filled to volume with sodium phosphate buffer (5% [w/w], pH=7.0) and stirred until dissolution was complete. A 1 ml sample was taken immediately, acidified with formic acid to pH=1.0 and analyzed by HPLC for the content of anthocyanosides (Fresh Sample). The remaining solution was kept for 4 hours at 37° C. (water bath) with stirring. Thereafter samples (Blank sample), representing unprotected degradation, were taken and acidified.
Sample b) 20 mg reduced L-glutathione (0.065 mmol) were added to a 100 ml flask with 60 ml sodium phosphate buffer (5% [w/w], pH=7.0) and stirred until dissolution was complete. 60 mg black currant extract [35% anthocyanosides] (0.037 mmol anthocyanosides expressed as cyanidin-3-O-rutinoside) were then added and the flask was filled to volume with sodium phosphate buffer (5% [w/w], pH=7.0) and kept for 4 hours at 37° C. (water bath) with stirring.
Sample c) 20 mg dihydrolipoic acid (0.096 mmol) were added to a 100 ml flask with 60 ml sodium phosphate buffer (5% [w/w], pH=7.0) and stirred until dissolution was completed. 60 mg black currant extract [35% anthocyanosides] (0.037 mmol anthocyanosides expressed as cyanidin-3-O-rutinoside) were added to the flask, filled to volume with sodium phosphate buffer (5% [w/w], pH=7.0) and kept for 4 hours at 37° C. (water bath) with stirring.
Sample d) 20 mg L-cysteine acid (0.165 mmol) were added to a 100 ml flask with 60 ml sodium phosphate buffer (5% [w/w], pH=7.0) and stirred until dissolution was complete. 60 mg black currant extract [35% anthocyanosides] (0.037 mmol anthocyanosides expressed as cyanidin-3-O-rutinoside) were added to the flask, filled to volume with sodium phosphate buffer (5% [w/w], pH=7.0) and kept for 4 hours at 37° C. (water bath) with stirring.
After 4 hours samples were taken, acidified immediately with formic acid to pH=1.0 and analyzed by HPLC for the content of anthocyanosides. Degradation is expressed as decrease in peak area of individual peaks (calculated as % left after 4 hours).
as §1
HPLC Analytical Method (Materials, Instruments and Methods): […]

[5] = unprotected, pH 7.0, 37° C., 4 hours
[6] = 20 mg reduced L-glutathione, pH 7.0, 37° C., 4 hours
[7] = 30 mg dihydrolipoic acid, pH 7.0, 37° C., 4 hours

OC[C@H]1O[C@@H](Oc2cc3c(O)cc(O)cc3[o+]c2-c2ccc(O)c(O)c2)[C@H](O)[C@@H](O)[C@@H]1O [Cn-3O-Glc, Cyanidin 3-o-glucoside]
Peak Area, Fresh solution ([1]; bilberry extract 60 mg in buffer pH 7.0, fresh sample): 987.9 | % left, L-cysteine 20 mg ([1]; pH 7.0, 37° C., 4 hours): 80.7% | Peak Area, L-cysteine 20 mg ([1]; pH 7.0, 37° C., 4 hours): 797.5 | % left, Blank [1, 5]: 41.5% | Peak Area, Blank [1, 5]: 410.3 | % left, GSH (4 hours) [2, 6]: 80.7% | Peak Area, GSH (4 hours) [2, 6]: 797.5 | % left, DHLA (4 hours) [2, 7]: 67.9% | Peak Area, DHLA (4 hours) [2, 7]: 671.1 | Peak Area, Fresh (0 hours) ([2]; bilberry extract 60 mg/100 ml sodium phosphate buffer pH 7.0, fresh sample): 987.9 | % left, Blank (4 hours) [2, 5]: 41.5% | Peak Area, Blank (4 hours) [2, 5]: 410.3 | Peak Area ([3]; Blank sample, 0:00 h): 491.1 | Peak Area ([3]; Blank sample, 0:15 h): 368.9 | Peak Area ([3]; Blank sample, 0:30 h): 361.9 | Peak Area ([3]; Blank sample, 0:45 h): 321.0 | Peak Area ([3]; Blank sample, 1:00 h): 312.0 | Peak Area ([3]; Blank sample, 1:30 h): 293.4 | Peak Area ([3]; Blank sample, 1:45 h): 283.8 | Peak Area ([3]; Blank sample, 2:00 h): 256.7 | Peak Area ([3]; Blank sample, 2:15 h): 250.3 | Peak Area ([3]; Blank sample, 2:30 h): 243.9 | Peak Area ([3]; Blank sample, 2:45 h): 226.8 | Peak Area ([3]; Blank sample, 3:00 h): 213.7 | Peak Area ([3]; Blank sample, 3:15 h): 204.9 | Peak Area ([3]; Blank sample, 3:30 h): 180.1 | Peak Area ([3]; Blank sample, 3:45 h): 181.6 | Peak Area ([3]; Blank sample, 4:00 h): 154.0 | %-residual anthocyanosides (% left) ([3]; Blank): 31% | Peak Area ([3]; GSH protected sample (20 mg), 0:00 h): 480.6 | Peak Area ([3]; GSH protected sample (20 mg), 0:15 h): 426.1 | Peak Area ([3]; GSH protected sample (20 mg), 0:45 h): 418.6 | Peak Area ([3]; GSH protected sample (20 mg), 1:00 h): 423.8 | Peak Area ([3]; GSH protected sample (20 mg), 1:15 h): 415.3 | Peak Area ([3]; GSH protected sample (20 mg), 1:45 h): 376.4 | Peak Area ([3]; GSH protected sample (20 mg), 2:00 h): 387.6 | Peak Area ([3]; GSH protected sample (20 mg), 2:15 h): 356.5 | Peak Area ([3]; GSH protected sample (20 mg), 2:45 h): 337.5 | Peak Area ([3]; GSH protected sample (20 mg), 3:00 h): 349.5 | Peak Area ([3]; GSH protected sample (20 mg), 3:15 h): 325.6 | Peak Area ([3]; GSH protected sample (20 mg), 3:45 h): 312.6 | Peak Area ([3]; GSH protected sample (20 mg), 4:00 h): 315.7 | Peak Area ([3]; GSH protected sample (20 mg), 4:15 h): 300.3 | %-residual anthocyanosides (% left) ([3]; GSH-protected): 66% | Peak Area, Fresh solution ([4]; black currant extract 60 mg/100 ml buffer pH 7.0, fresh sample): 491.1 | % left, DHLA 20 mg ([4]; pH 7.0, 37° C., 4 hours): 51.7% | % left, GSH 20 mg ([4]; pH 7.0, 37° C., 4 hours): 64.3% | % left, L-cysteine 20 mg ([4]; pH 7.0, 37° C., 4 hours): 38.0% | Peak Area, DHLA 20 mg ([4]; pH 7.0, 37° C., 4 hours): 254.1 | Peak Area, GSH 20 mg ([4]; pH 7.0, 37° C., 4 hours): 315.7 | Peak Area, L-cysteine 20 mg ([4]; pH 7.0, 37° C., 4 hours): 186.8 | % left, Blank [4, 5]: 31.4% | Peak Area, Blank [4, 5]: 154.0
